Source: publication PMC4252262 (Chemico-biological interactions, 2014)
Several values for one entry are separate records, joined by “and”; a condition that tells them apart may be missing. Equal values may be shown once. Read-outs that look alike come from different tables or passages of the source. Blank lines part the entries; values can stand above or below the molecule they belong to.

How the values were obtained:
Assay type in all cases: biochemical
2E1 = 2E1 (Homo sapiens, UniProt P05181); conditions: 25 μM; 15 min pre-incubation at 37 °C in the presence of 1 mM NADPH; positive control
[1] = target: human cytochrome P450_2E1 (Homo sapiens, UniProt P05181); assay: Inhibition of P450 2E1; conditions: for Ki: KI for inhibition of 2E1, competitive model, p-nitrophenol substrate; for fold difference in 2E1 KI, branched versus linear 10-carbon aldehyde: decanal vs citronellal, decenal vs citral
[2] = target: expressed cytochrome P450_2E1 in supersomes (Homo sapiens, UniProt P05181); assay: Aldehyde oxidation to carboxylic acid by expressed human P450 2E1 supersomes; conditions: for NADPH-dependent oxidation of aldehyde by expressed 2E1: 100-120 μM aldehyde, 1.0 mM NADPH, 45 min, 37 °C; for effect on the rate of acid formation from trans-2-octenal: 1.0 mM added, 2E1 supersomes
[3] = target: T1, expressed 2A6 (supersomes) (Homo sapiens, UniProt P11509); assay: Aldehyde oxidation to carboxylic acid by expressed human P450 2A6 supersomes; conditions: 100-120 μM aldehyde, 1.0 mM NADPH, 45 min, 37 °C
T1 sequence (P11509 1-494): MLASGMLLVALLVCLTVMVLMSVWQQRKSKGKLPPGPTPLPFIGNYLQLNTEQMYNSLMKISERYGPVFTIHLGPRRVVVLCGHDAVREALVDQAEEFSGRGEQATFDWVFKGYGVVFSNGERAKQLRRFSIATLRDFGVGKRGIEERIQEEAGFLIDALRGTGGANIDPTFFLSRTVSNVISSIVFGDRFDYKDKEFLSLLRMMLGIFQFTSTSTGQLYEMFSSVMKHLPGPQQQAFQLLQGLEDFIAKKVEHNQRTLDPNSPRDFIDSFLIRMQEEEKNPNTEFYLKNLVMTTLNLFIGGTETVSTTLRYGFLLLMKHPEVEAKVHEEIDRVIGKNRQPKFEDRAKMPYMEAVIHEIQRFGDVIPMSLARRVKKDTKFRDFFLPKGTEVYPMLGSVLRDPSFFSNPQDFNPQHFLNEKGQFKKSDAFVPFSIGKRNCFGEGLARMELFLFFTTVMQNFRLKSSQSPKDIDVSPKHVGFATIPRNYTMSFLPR

[4] = target: T2, human cytochrome P450_2A6 (Homo sapiens, UniProt P11509); assay: Inhibition of P450 2A6
T2 sequence (P11509 1-494): T1 sequence (P11509 1-494)

[5] = KI for inhibition of 2A6, competitive model, coumarin substrate

expressed cytochrome P450_2E1 in supersomes, sequence (P05181 whole entry): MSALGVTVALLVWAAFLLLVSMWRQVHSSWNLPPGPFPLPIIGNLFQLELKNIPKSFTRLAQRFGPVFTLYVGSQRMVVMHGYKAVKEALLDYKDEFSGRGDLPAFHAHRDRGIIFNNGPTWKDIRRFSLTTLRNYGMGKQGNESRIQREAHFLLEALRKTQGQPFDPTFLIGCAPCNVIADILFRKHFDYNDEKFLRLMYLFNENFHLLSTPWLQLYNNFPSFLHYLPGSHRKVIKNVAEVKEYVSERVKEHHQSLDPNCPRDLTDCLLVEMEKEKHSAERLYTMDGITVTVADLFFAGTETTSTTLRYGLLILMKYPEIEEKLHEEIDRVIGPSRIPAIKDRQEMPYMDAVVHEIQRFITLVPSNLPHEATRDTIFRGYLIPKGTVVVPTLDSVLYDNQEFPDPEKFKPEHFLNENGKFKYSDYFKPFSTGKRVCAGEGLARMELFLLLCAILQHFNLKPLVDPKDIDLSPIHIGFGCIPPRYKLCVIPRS
human cytochrome P450_2E1, sequence (P05181 whole entry): as above
2E1, sequence (P05181 whole entry): as above

loss of the activity of 2E1 after pre-incubation (2E1): ~ 50%
SMILES: C=CCCCCCCCCC=O [11-undecylenic aldehyde]

Ki [1]: 7 µM | fold difference in 2E1 KI, branched versus linear 10-carbon aldehyde [1]: about 8 fold
SMILES: CCCCCCCCCC=O [Decyl Saturated, decanal]

NADPH-dependent oxidation of aldehyde by expressed 2E1 [2]: effective in the oxidation | NADPH-dependent oxidation of aldehyde by expressed 2A6 [3]: no acid products
SMILES: CCCCCCC/C=C/C=O [Decyl Unsaturated, trans-2-decenal]

Ki [4, 5]: 15.8 ± 1.1 µM
SMILES: CCCCCCC=O [Heptyl Saturated, heptanal]

NADPH-dependent oxidation of aldehyde by expressed 2E1 [2]: effective in the oxidation | NADPH-dependent oxidation of aldehyde by expressed 2A6 [3]: no acid products
SMILES: CCCC/C=C/C=O [Heptyl Unsaturated, trans-2-heptenal]

Ki [4]: 57 ± 7 µM
SMILES: CCCCCC=O [Hexyl Saturated]

Ki [4]: 33 ± 3 µM
SMILES: CCC/C=C/C=O [Hexyl Unsaturated]

Ki [4]: 55 ± 6 µM
SMILES: CCCCCCCCC=O [Nonyl Saturated]

NADPH-dependent oxidation of aldehyde by expressed 2E1 [2]: effective in the oxidation | NADPH-dependent oxidation of aldehyde by expressed 2A6 [3]: no acid products
SMILES: CCCCCC/C=C/C=O [Nonyl Unsaturated, trans-2-nonenal]

Ki [4]: 25 ± 2 µM
SMILES: CCCCCCCC=O [Octyl Saturated]

NADPH-dependent oxidation of aldehyde by expressed 2E1 [2]: effective in the oxidation | NADPH-dependent oxidation of aldehyde by expressed 2A6 [3]: no acid products
SMILES: CCCCC/C=C/C=O [Octyl Unsaturated, trans-2-octenal]

Ki [4]: 126 ± 16 µM
SMILES: CCCCC=O [Pentyl Saturated]

Ki [4]: 1270 ± 150 µM
SMILES: CCC=CC=O [Pentyl Unsaturated]

Ki [4]: 103 ± 22 µM
SMILES: CCCCCCCC/C=C/C=O [Undecy Unsaturated]

effect on the rate of acid formation from trans-2-octenal [2]: no effect
SMILES: O=C1O[C@H]([C@@H](O)CO)C(O)=C1O [ascorbate, reference compound]

Ki [1]: 18.8 µM and 15.7 µM | mode of inhibition of 2E1 ([1]; Michaelis-Menten model): reversible competitive inhibition | fold difference in 2E1 KI, branched versus linear 10-carbon aldehyde [1]: 5 fold | Ki [4, 5]: > 100 µM
SMILES: CC(C)=CCCC(C)=CC=O [citral, 3,7-dimethyl 2,6-octadienal]

effect on the rate of acid formation from trans-2-octenal [2]: no effect
SMILES: N[C@@H](CCC(=O)N[C@@H](CS)C(=O)NCC(=O)O)C(=O)O [glutathione, reference compound]

SMILES: CCCCCCCCCCCC(=O)O [lauric acid, reference compound]
reduction of the activity of 2E1 ([1]; concentration of 50 μM): 50%
